Measurements published in patent US12264163B2, “Compounds and methods for treating fibrotic pathologies” (Mayo Foundation for Medical Education and Research, priority 2019, dated 2025).

Experiments:
[1] = test system: bleomycin-induced pulmonary fibrosis; experiment: Bleomycin mouse model of pulmonary fibrosis; type: in vivo; conditions: bleomycin mice
Protocol: Bleomycin Mouse Study: In the initial in vivo siRNA study (FIGS. 22 and 23A-23C), adult male age-matched C57BL/6N mice at 6-8 weeks of age were purchased from the National Cancer Institute (NCI)-Frederick Mouse Repository (Frederick, MD, USA). All experiments were performed in accordance with National Institute of Health guidelines and protocols approved by the Massachusetts General Hospital Subcommittee on Research Animal Care, and maintained all mice in a specific pathogen-free (SPF) environment certified by the American Association for Accreditation of Laboratory Animal Care (AAALAC). 6-8 weeks old mice were anesthetized with ketamine and xylazine before exposure of the trachea. Lung fibrosis was induced by intratracheal injection of bleomycin (50 μl at 1.2 U/kg) or phosphate buffered saline (PBS; as control) on day 0. After 14 days Small interfering RNA (siRNA) duplexes targeting mouse Yap (L-046247-01-0005) or Taz (L-058248-01-0005) mRNA (Dharmacon) or nontargeting control siRNA were administered in vivo by intratracheal instillation at a single dose of 25 μg (each siRNA) per mouse. On day 21 Mice were sacrificed and lungs harvested for collagen determination and biochemical analyses. To obtain BAL samples for total protein concentration determination, lungs were lavaged with six 0.5-mL aliquots of PBS. BAL samples were centrifuged at 3,000 g for 20 min at 4° C. and transferred the supernatants to siliconized low-binding Eppendorf tubes (PGC Scientifics) for subsequent analysis. Total protein concentration of the BAL fluid was determined by BCA Protein Assay Kit (Pierce). In the dihydrexidine treatment studies (FIG. 17-21), 8 week old female C57/BL6 mice were purchased from Charles River Laboratories. Mouse lung fibrosis was induced with bleomycin (BLEO; Fresenius Kabi) delivered intratracheally (3 U/kg) to the lungs using MicroSprayer® Aerosolizer (Penn-Century). The Sham mice received sterile 0.9% saline instead using identical methods. Mice were weighed every 24 hrs, and both groups were then randomized at day 10 into DHX and Control treatment groups, matching for the degree of weight change. DHX (5 mg/kg) was administered everyday intranasally (i.n.) dissolved in surfactant (infasurf) which has previously shown to aid in spreading to pulmonary aveoli for 14 days. The control groups of mice received the equivalent vehicle dose of surfactant. Following the final DHX treatment, mice were sacrificed and the right lungs were inflated with 4% paraformaldehyde (PFA) and further incubated in 4% PFA for 24 hours prior processing for paraffin embedding. The left lobe of the lung was snap frozen in liquid nitrogen for RNA isolation and hydroxyproline assay. Experimental procedures were approved by the Mayo Clinic Institutional Animal Care and Use Committee and the animals were handled in accordance with their guidelines.
Histological Scoring: Five μm thick sections were cut from Paraffin embedded lung tissues, and the sections were stained either with hematoxylin and eosin (H&E) or with Masson's Trichrome stain kit (Abcam). All H&E-stained slides and trichrome-stained slides were reviewed in a blinded fashion by a thoracic pathologist. The severity of interstitial and peribronchiolar lung immature and mature fibrosis was estimated on a numerical scale according to Ashcroft et al. For scoring purposes, all H&E stained slides were systematically scanned at 100× magnification and successive 100× fields were scored. Scoring was based on the following scale: 0 (no fibrosis), 1 (minimal interstitial and/or peribronchiolar thickening due to fibrosis), 3 (moderate thickening without obvious architectural distortion), 5 (increased fibrosis with formation of fibrous bands and/or small masses), 7 (severe architectural distortion with large areas of fibrosis and areas of honeycomb changes), and 8 (total fibrous obliteration of the field). The predominant score for each field was recorded. The mean of all scores was calculated for each case. […]

YAP/TAZ [2] = experiment: YAP/TAZ localization in lung alveolar epithelial and endothelial cells; type: cell-based, human; conditions: pulmonary (alveolar) epithelial and endothelial cells
Protocol: N=4 (****p<0.0001 vs. 0.1% DMSO vehicle control)
N=3 (****p<0.0001 vs. 0.1% DMSO vehicle control).
Human lung fibroblasts and alveolar epithelial cells are treated with MS-9 and influence on YAP/TAZ localization is determined.
Immunofluorescence Microscopy: Cells were plated into 96 well plates (Corning 3603) in their specific growth media and allowed to attach (8 hours). Media was then exchanged for the indicated conditions for each experiment. Cells were fixed in 3.7% formalin (Sigma-Aldrich), permeabilized in 0.25% Triton X-100 (Sigma-Aldrich) and then blocked with 1% BSA for 1 h. Cells or tissue sections were incubated overnight with mouse monoclonal antibody against αSMA (Sigma-Aldrich F3777), and/or a rabbit monoclonal antibody against YAP/TAZ (Cell Signaling D24E4) diluted 1:200 in PBS with 1% BSA. […] For scoring αSMA positive cells (FIG. 12), an observer blinded to the treatment conditions counted αSMA-positive cells using a visual threshold for bright fibrous staining; a minimum of 200 cells was counted for each condition. YAP/TAZ localization was quantified (FIGS. 6-10, 24-26, and 29-30) using Gen5 (Biotek) software. […] Quantification of double positive (YAP/TAZ and αSMA) cells from lung tissue sections (FIG. 17-21) was performed similarly; however separate thresholds were established for both YAP/TAZ and αSMA. A minimum of 4000 cells was quantified for each mouse.

YAP/TAZ [3] = experiment: YAP/TAZ nuclear localization in IMR-90 and other fibroblasts / mesenchymal cells (immunofluorescence); type: cell-based, human; conditions: cells with lower DRD1 and DRD5 expression than IMR-90

SMILES: Oc1cc2c(cc1O)[C@H]1c3ccccc3CN[C@@H]1CC2 (racemic) [Dihydrexidine]
- lung remodeling by histology (Ashcroft, blinded pathologist) ([1]; DHX 5 mg/kg i.n. Day 10-24): nearly completely protected from lung remodeling
- lung transcript levels of Acta2, Ctgf, Fn1, Col1a1, Col1a2, Yap and Taz ([1]; DHX 5 mg/kg i.n. Day 10-24): significantly attenuated
- staining for YAP and TAZ in the lungs ([1]; DHX 5 mg/kg i.n. Day 10-24): attenuated
- total collagen in the lungs (hydroxyproline) ([1]; DHX 5 mg/kg i.n. Day 10-24): nearly identical to sham treated mice
- weight change ([1]; DHX 5 mg/kg once daily i.n. from Day 10, vs Bleo control): lost significantly less weight
- expression of YAP/TAZ target genes in flow-sorted lung cells ([1]; two doses of DHX on day 10, lungs collected day 11): selectively blocks expression of YAP/TAZ target genes in lung fibroblasts
- YAP/TAZ localization in epithelial / endothelial cells (YAP/TAZ [2]): no effect on YAP/TAZ localization
- YAP/TAZ nuclear localization in mesenchymal cells derived from uterine fibroids (YAP/TAZ [3]): marginal inhibition of YAP/TAZ nuclear localization
